# Results as given in US20090042726A1, “Novel Herbicides” (SYNGENTA LIMITED, priority 2005, published 2009).
# System: Monocotyledonous and dicotyledonous test plants
# Test: Herbicidal action, application pre-emergence (Example B1)
# Type: in vivo
# Design: key: 10=total damage to plant; 0=no damage to plant
# Conditions: 1000 g/ha, evaluated after 9 or 13 days; for AGSTE herbicidal action (damage score 0-10): Agrostis-tenius; for AMARE herbicidal action (damage score 0-10): Amaranthus retroflexus; for DIGSA herbicidal action (damage score 0-10): Digitaria sanguinalis; for POATR herbicidal action (damage score 0-10): Poa trivialis; for SETIT herbicidal action (damage score 0-10): Setaria italica
# Method: Monocotyledonous and dicotyledonous test plants were sown in sterilised standard soil in seed trays each having 96 cells. After one day (pre-emergence) under controlled conditions in a climatic chamber (cultivation at 23/17° C., day/night; 13 hours light; 50-60% humidity; after application at 24/19° C., day/night), the plants were treated with an aqueous spray solution of 1000 mg/l of the active ingredient used (including 10% DMSO as solvent). The plants were grown on in the climatic chamber until the test was evaluated (10=total damage to plant, 0=no damage to plant) after 9 or 13 days.
SMILES,AGSTE herbicidal action (damage score 0-10),AMARE herbicidal action (damage score 0-10),DIGSA herbicidal action (damage score 0-10),POATR herbicidal action (damage score 0-10),SETIT herbicidal action (damage score 0-10)
"Cc1nc(C[S+]([O-])C2=NOC(C)(C)C2F)n(C)n1 (single isomer, unassigned) [8.03]",10,0,9,8,–
Cn1nc(C(F)(F)F)cc1CSC1=NOC(C)(C)C1F (stereo not shown) [Compound No. 6.01],9,0,8,0,–
"CC1(C)ON=C([S+]([O-])Cc2nn(C3CCCC3)nc2C(F)(F)F)C1F (single isomer, unassigned) [7.12]",10,10,9,10,–
Cc1nn(C)nc1CS(=O)(=O)C1=NOC(C)(C)C1F (stereo not shown) [7.04],10,10,10,10,9
"Cc1nc(C[S+]([O-])C2=NOC(C)(C)C2F)n(C)n1 (single isomer, unassigned) [8.02]",10,4,10,10,–
"Cn1nc(C(F)(F)F)c(C[S+]([O-])C2=NOC(C)(C)C2F)c1OC(F)F (single isomer, unassigned) [2.24]",10,10,10,10,10
Cn1nc(OCC(F)(F)F)c(CS(=O)(=O)C2=NOC(C)(C)C2F)c1C(F)(F)F (stereo not shown) [2.44],0,10,7,10,10
Cn1nc(C(F)(F)F)cc1C[S+]([O-])C1=NOC(C)(C)C1F (mixture of isomers) [6.02],10,10,9,10,–
CC1(C)ON=C(SCc2nn(CC3CCC3)nc2C(F)(F)F)C1F (stereo not shown) [Compound No. 7.15],8,9,9,0,–
Cc1nn(C)nc1CSC1=NOC(C)(C)C1F (stereo not shown) [Compound No. 7.01],10,0,8,0,8
Cn1nc(OC(F)F)cc1CSC1=NOC(C)(C)C1F (stereo not shown) [Compound No. 6.08],9,3,8,9,–
COc1ncc(CS(=O)(=O)C2=NOC(C)(C)C2F)c(C(F)(F)F)n1 (stereo not shown) [5.03],10,10,8,10,–
"C=CCn1nc(C[S+]([O-])C2=NOC(C)(C)C2F)c(C(F)(F)F)n1 (single isomer, unassigned) [7.08]",10,10,10,10,–
"CC1(C)ON=C(S(=O)(=O)C(Cl)c2ccccc2OC(F)(F)F)C1F (stereo not shown) [Compound No. 1.13, 3-[chloro-(2-trifluoromethoxy-phenyl)-methanesulfonyl]-4-fluoro-5,5-dimethyl-4,5-dihydro-isoxazole]",10,9,9,10,9
